Measured values published in patent publication US5527882A, “Polypeptide having an amino acid replaced with N-benzylglycine” (The Regents of the University of California, priority 1994, dated 1996).
Square brackets hold non-standard residues; d marks the D form. Ends that are not written are not given here. Peptide text beside a SMILES is read from it.

Key:
pulmonary circulation = details: rat, in vivo
Excerpt: (§1) See Vavrek supra for assay methods.
Bradykinin and (NBzlGly^7)-bradykinin were virtually identical with respect to destruction (98-99%) on passage through the pulmonary circulation.

rat blood pressure = assay: Rat blood pressure assay; format: in vivo; details: bradykinin = 100%
Excerpt: | See Vavrek supra for assay methods.

guinea pig ileum = assay: Smooth muscle bioassay: guinea pig ileum contraction; format: cell-based; details: bradykinin = 100%
Excerpt: as §1
GP Ileum, guinea pig ileum contraction;

rat uterus = assay: Smooth muscle bioassay: rat uterus contraction; format: cell-based; details: bradykinin = 100%
Excerpt: as §1
Rat Uterus, rat uterus contraction;

| Compound | Destruction (pulmonary circulation) [%] | Rat Blood Pressure IA, potency relative to bradykinin (rat blood pressure; intraaortic administration) [%] | Rat Blood Pressure IV, potency relative to bradykinin (rat blood pressure; intravenous administration) [%] | Smooth Muscle GP Ileum (guinea pig ileum contraction), potency relative to bradykinin (guinea pig ileum) [%] | Smooth Muscle Rat Uterus (rat uterus contraction), potency relative to bradykinin (rat uterus) [%] |
| --- | --- | --- | --- | --- | --- |
| NC(N)=NCCC[C@H](NC(=O)[C@H](Cc1ccccc1)NC(=O)[C@@H](Cc1ccccc1)NC(=O)[C@H](CO)NC(=O)[C@H](Cc1ccccc1)NC(=O)CNC(=O)[C@@H]1CCCN1C(=O)[C@@H]1CCCN1C(=O)[C@@H](N)CCCN=C(N)N)C(=O)O [[D-Phe^7]-Bradykinin, (D-Phe^7)-bradykinin] (H-RPPGFS[dF]FR-OH) | 36 |  |  |  |  |
| RPPGFSPFR [Bradykinin] |  | 100 | 100 | 100 | 100 |
